Measured values published in patent publication US9409905B2, “Antibacterial compounds and methods for use” (PTC THERAPEUTICS, INC., priority 2011, dated 2016).
Values after ≈ are worked out from the molar mass of the structure shown.

Experiments:
[1] = test system: Escherichia coli (E. coli) BAS849; assay: Antibacterial activity, microbroth dilution MIC (Table 1); type: cell-based; conditions: microbroth dilution, super sensitive Gram-negative E. coli BAS849, read-out: MIC, BAS849
In short: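 MIC (μg/mL) is taken as the lowest concentration with no macroscopically visible growth. Strains tested by microbroth dilution: Gram-positive S. aureus 29213, control Gram-negative E. coli 25922, and super-sensitive E. coli BAS849.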

[2] = test system: Staphylococcus aureus (S. aureus) 29213; assay: as above; type: cell-based; conditions: microbroth dilution, Gram-positive S. aureus 29213, read-out: MIC, 29213
In short: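 Lowest concentration stopping macroscopically visible growth under test conditions, by broth microdilution, defines the MIC (μg/mL).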

E. coli 25922 = assay: as above; type: cell-based, Escherichia coli; conditions: Escherichia coli; microbroth dilution; control Gram-negative E. coli 25922 strain; read-out: MIC, 25922
In short: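 Microbroth dilution was used. MIC, in μg/mL, is the lowest drug concentration preventing macroscopically visible growth under the test conditions.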

E. coli LZ3111 = assay: Antibacterial activity, MIC, quinolone resistant strain (Table 2); type: cell-based; conditions: Escherichia coli, LZ3111, read-out: MIC LZ3111
In short: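 Broth microdilution. Read-out: MIC in μg/mL, taken as lowest concentration with no macroscopically visible growth.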

| Structure (SMILES) | MIC [1] | MIC [2] | MIC (E. coli 25922) | MIC (E. coli LZ3111) |
| --- | --- | --- | --- | --- |
| CCc1cc(C(=O)O)c(=O)[nH]c1-c1ccc2c(c1)cc(CN1CCC(N(C)C)C1)n2C (stereo not drawn) [Cpd 128, 6-(2-((3-(dimethylamino)pyrrolidin-1-yl)methyl)-1-methyl-1H-indol-5-yl)-5-ethyl-2-oxo-1,2-dihydropyridine-3-carboxylic acid] | < 1 µg/mL | 12.5 to 150 µg/mL (≈ 29.6 to 355 µM) | 1 to 3.5 µg/mL (≈ 2.37 to 8.28 µM) | 12.5 to 150 µg/mL (≈ 29.6 to 355 µM) |
| CCc1c(-c2ccc3c(c2)cc(CN(C)CCN(C)C)n3C)[nH]c(=O)c(C(=O)O)c1O [Cpd 303, 6-(2-(((2-(dimethylamino)ethyl)(methyl)amino)methyl)-1-methyl-1H-indol-5-yl)-5-ethyl-4-hydroxy-2-oxo-1,2-dihydropyridine-3-carboxylic acid] | < 1 µg/mL | 12.5 to 150 µg/mL (≈ 29.3 to 352 µM) | 3.5 to 12.5 µg/mL (≈ 8.21 to 29.3 µM) | 12.5 to 150 µg/mL (≈ 29.3 to 352 µM) |
| CCc1c(-c2ccc3c(c2)cc(CN2CCC(c4ccccn4)C2)n3C)[nH]c(=O)c(C(=O)O)c1O (stereo not drawn) [Cpd 267, 5-ethyl-4-hydroxy-6-(1-methyl-2-((3-(pyridin-2-yl)pyrrolidin-1-yl)methyl)-1H-indol-5-yl)-2-oxo-1,2-dihydropyridine-3-carboxylic acid] | < 1 µg/mL | 3.5 to 12.5 µg/mL (≈ 7.41 to 26.5 µM) | 1 to 3.5 µg/mL (≈ 2.12 to 7.41 µM) | 12.5 to 150 µg/mL (≈ 26.5 to 317 µM) |
| CCc1cc(C(=O)O)c(=O)[nH]c1-c1cc2cc(CN(C)C)n(C)c2cc1Cl [Cpd 93, 6-(6-chloro-2-((dimethylamino)methyl)-1-methyl-1H-indol-5-yl)-5-ethyl-2-oxo-1,2-dihydropyridine-3-carboxylic acid] | 12.5 to 150 µg/mL (≈ 32.2 to 387 µM) | 12.5 to 150 µg/mL (≈ 32.2 to 387 µM) | 12.5 to 150 µg/mL (≈ 32.2 to 387 µM) | 12.5 to 150 µg/mL (≈ 32.2 to 387 µM) |
| CCc1cc(C(=O)O)c(=O)[nH]c1-c1cc(F)c2c(c1)cc(CN(CC)CC)n2C [Cpd 101, 6-(2-((diethylamino)methyl)-7-fluoro-1-methyl-1H-indol-5-yl)-5-ethyl-2-oxo-1,2-dihydropyridine-3-carboxylic acid] | < 1 µg/mL | 12.5 to 150 µg/mL (≈ 31.3 to 376 µM) | 3.5 to 12.5 µg/mL (≈ 8.76 to 31.3 µM) | 12.5 to 150 µg/mL (≈ 31.3 to 376 µM) |
| CCc1c(-c2ccc3c(c2)cc(CN2CC(N(C)CCN(C)C)C2)n3C)[nH]c(=O)c(C(=O)O)c1O [Cpd 207, 6-(2-((3-((2-(dimethylamino)ethyl)(methyl)amino)azetidin-1-yl)methyl)-1-methyl-1H-indol-5-yl)-5-ethyl-4-hydroxy-2-oxo-1,2-dihydropyridine-3-carboxylic acid] | 1 to 3.5 µg/mL (≈ 2.08 to 7.27 µM) | 12.5 to 150 µg/mL (≈ 26 to 311 µM) | 12.5 to 150 µg/mL (≈ 26 to 311 µM) | 12.5 to 150 µg/mL (≈ 26 to 311 µM) |
| CCc1cc(C(=O)O)c(=O)[nH]c1-c1ccc2c(c1)cc(CN(C)C(C)=O)n2C [Cpd 145, 5-ethyl-6-(1-methyl-2-((N-methylacetamido)methyl)-1H-indol-5-yl)-2-oxo-1,2-dihydropyridine-3-carboxylic acid] | < 1 µg/mL | 12.5 to 150 µg/mL (≈ 32.8 to 393 µM) | 3.5 to 12.5 µg/mL (≈ 9.18 to 32.8 µM) | 12.5 to 150 µg/mL (≈ 32.8 to 393 µM) |
| CCc1cc(C(=O)O)c(=O)[nH]c1-c1cc(F)c2c(c1)cc(CN1CCOCC1)n2C [Cpd 98, 5-ethyl-6-(7-fluoro-1-methyl-2-(morpholinomethyl)-1H-indol-5-yl)-2-oxo-1,2-dihydropyridine-3-carboxylic acid] | < 1 µg/mL | 12.5 to 150 µg/mL (≈ 30.2 to 363 µM) | 3.5 to 12.5 µg/mL (≈ 8.47 to 30.2 µM) | 12.5 to 150 µg/mL (≈ 30.2 to 363 µM) |
| CCc1c(-c2ccc3c(c2)cc(CN2C[C@H]4C[C@@H](N(Cc5ccccc5)Cc5ccccc5)C[C@H]4C2)n3C)[nH]c(=O)c(C(=O)O)c1O [Cpd 286, 6-(2-(((3aR,5r,6aS)-5-(dibenzylamino)hexahydrocyclopenta[c]pyrrol-2(1H)-yl)methyl)-1-methyl-1H-indol-5-yl)-5-ethyl-4-hydroxy-2-oxo-1,2-dihydropyridine-3-carboxylic acid] | 12.5 to 150 µg/mL (≈ 19.8 to 238 µM) | 12.5 to 150 µg/mL (≈ 19.8 to 238 µM) | 12.5 to 150 µg/mL (≈ 19.8 to 238 µM) | 12.5 to 150 µg/mL (≈ 19.8 to 238 µM) |
| CCc1cc(C(=O)O)c(=O)[nH]c1-c1cc2cc(CN3CCCC3)n(C)c2cc1C [Cpd 89, 6-(1,6-dimethyl-2-(pyrrolidin-1-ylmethyl)-1H-indol-5-yl)-5-ethyl-2-oxo-1,2-dihydropyridine-3-carboxylic acid] | 12.5 to 150 µg/mL (≈ 31.8 to 381 µM) | 12.5 to 150 µg/mL (≈ 31.8 to 381 µM) | 12.5 to 150 µg/mL (≈ 31.8 to 381 µM) | 12.5 to 150 µg/mL (≈ 31.8 to 381 µM) |
| CCc1c(-c2ccc3c(c2)cc(CN2C[C@@H]4[C@H](C2)[C@H]4N(C)C)n3C)[nH]c(=O)c(C(=O)O)c1O [Cpd 197, 6-(2-(((1R,5S,6s)-6-(dimethylamino)-3-azabicyclo[3.1.0]hexan-3-yl)methyl)-1-methyl-1H-indol-5-yl)-5-ethyl-4-hydroxy-2-oxo-1,2-dihydropyridine-3-carboxylic acid] | < 1 µg/mL | 3.5 to 12.5 µg/mL (≈ 7.77 to 27.7 µM) | 1 to 3.5 µg/mL (≈ 2.22 to 7.77 µM) | 12.5 to 150 µg/mL (≈ 27.7 to 333 µM) |
| CCc1cc(C(=O)O)c(=O)[nH]c1-c1ccc2c(c1)cc([C@H]1CCCN1)n2C.Cl [Cpd 67, (R)-5-ethyl-6-(1-methyl-2-(pyrrolidin-2-yl)-1H-indol-5-yl)-2-oxo-1,2-dihydropyridine-3-carboxylic acid hydrochloride] | < 1 µg/mL | 12.5 to 150 µg/mL | 1 to 3.5 µg/mL | 12.5 to 150 µg/mL |
